What was measured:
[1] = target: T1, human mPGES-1 (Homo sapiens, UniProt O14684); test: Microsomal prostaglandin E synthase assay; assay type: biochemical; conditions: microsomes of CHO-K1 cells transfected with human mPGES-1; PGE2 by EIA; average of at least n=3; read-out: h-CHO (nM); potency expressed as IC50
T1 construct: made in house; host or cells: CHO-K1 cells, transient transfection; microsomal fraction
T1 sequence (O14684 1-152): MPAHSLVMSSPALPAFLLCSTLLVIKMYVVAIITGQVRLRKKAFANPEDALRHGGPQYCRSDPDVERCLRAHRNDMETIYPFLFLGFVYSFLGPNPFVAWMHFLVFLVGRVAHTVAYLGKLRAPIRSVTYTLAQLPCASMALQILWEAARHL
Method: Compounds are tested as inhibitors of prostaglandin E synthase activity in microsomal prostaglandin E synthases, whole cell and in vivo assays. These assays measure prostaglandin E2 (PGE2) synthesis using either Enzymatic Immunoassay (EIA) or mass spectrometry. Cells used for microsomal preparation are CHO-K1 cells transiently transfected with plasmids encoding the human mPGES-1 cDNA. Cells used for cell-based experiments are human A549 (which express human mPGES-1). Guinea pigs are used to test the activity of selected compounds in vivo. In all these assays, 100% activity is defined as the PGE2 production in vehicle-treated samples.
Prostaglandin E synthase microsomal fractions are prepared from CHO-K1 cells transiently transfected with plasmid encoding the human mPGES-1 cDNA. […] The enzyme reactions are performed in 200 mM KPi pH 7.0, 2 mM EDTA and 2.5 mM GSH-reduced form. […] The reaction is terminated by the addition of SnCl2 in 1N HCl (1 mg/ml final).

[2] = test system: human colon tumor cell line; conditions: cited from earlier work

Q: For `CC(C)(O)C#Cc1ccc2c(c1)c1cc(Cl)ccc1c1[nH]c(-c3c(F)cccc3C#N)nc21` [Example 14, 2-[9-chloro-6-(3-hydroxy-3-methylbutyl-1-yn-1-yl)-1H-phenanthro[9,10-d]imidazol-2-yl]-3-fluorobenzonitrile], which IC50 [1] is on record?
A: 1.8 nM

Q: With `N#Cc1cccc(C#N)c1-c1nc2c3ccc(Br)cc3c3cc(Cl)ccc3c2[nH]1` [Example 36, 2-(6-bromo-9-chloro-1H-phenanthro[9,10-d]imidazol-2-yl)isophthalonitrile] as the compound, how does the IC50 [1] read?
A: 1.2 nM

Q: With `CC(C)(O)c1ccc2c(c1)c1cc(Br)ccc1c1nc(-c3c(C#N)cccc3C#N)[nH]c21` [Example 87, 2-[6-bromo-9-(1-hydroxy-1-methylethyl)-1H-phenanthro[9,10-d]imidazol-2-yl]isophthalonitrile] as the compound, how does the IC50 [1] read?
A: 1.9 nM

Q: With `CC(C)(O)c1ccc2c(c1)c1cc(C#CC3CC3)ccc1c1nc(-c3c(C#N)cccc3C#N)[nH]c21` [Example 88, 2-[6-(cyclopropylethynyl)-9-(1-hydroxy-1-methylethyl)-1H-phenanthro[9,10-d]imidazol-2-yl]isophthalonitrile] as the compound, how does the IC50 [1] read?
A: 1.3 nM

Q: What does the source list for `CC(C)c1ccc2c(c1)c(SC(C)(C)C)c(CC(C)(C)C(=O)O)n2Cc1ccc(Cl)cc1` [MK-886]?
A: PGE2 formation [2]: inhibits; cell proliferation [2]: inhibits
